Tests used:
Adenosine receptor A1 = biological target: T1, Adenosine receptor A1 (Bos taurus, UniProt P28190); assay: Displacement of [3H]CHA from Adenosine A1 receptor in bovine cortical membrane expressed as Ki; assay type: cell membranes
T1 sequence (P28190 whole entry): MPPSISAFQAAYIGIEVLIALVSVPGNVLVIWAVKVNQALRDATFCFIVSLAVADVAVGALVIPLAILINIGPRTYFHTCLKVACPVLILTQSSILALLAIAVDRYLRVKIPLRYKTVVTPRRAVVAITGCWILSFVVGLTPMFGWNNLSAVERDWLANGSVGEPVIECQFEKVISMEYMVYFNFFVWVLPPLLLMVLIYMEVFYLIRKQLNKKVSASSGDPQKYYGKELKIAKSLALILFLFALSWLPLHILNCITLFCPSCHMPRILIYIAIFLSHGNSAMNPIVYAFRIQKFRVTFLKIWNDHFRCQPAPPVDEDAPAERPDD

[1] = tested on: Adenosine receptor A2a (Bos taurus); assay: Percent inhibition of [3H]CGS-21680 binding to A2A adenosine receptor of bovine striatal membrane at 10 uM
[2] = biological target: T2, Adenosine receptor A1 (Bos taurus) (UniProt P28190); assay: Percent inhibition of [3H]CHA binding at Adenosine A1 receptor in bovine cortical membrane at 10 uM; assay type: cell membranes
T2 sequence (whole entry): T1 sequence (P28190 whole entry)

[3] = biological target: Adenosine receptor A2a (Bos taurus); assay: Displacement of [3H]CGS-21680 binding at A2A adenosine receptor in bovine striatal membrane

CCCNc1c(C(=O)OCC)cnc2c1cnn2CC(Cl)c1ccccc1 (stereo not drawn)
Ki (Adenosine receptor A1): 100 nM

CCOC(=O)c1cnc2c(cnn2CC(Cl)c2ccccc2)c1N1CCOCC1 (stereo not drawn)
Ki (Adenosine receptor A1): 470 nM
inhibition [1]: 0%

CCOC(=O)c1cnc2c(cnn2CC(Cl)c2ccccc2)c1Nc1ccccc1 (stereo not drawn)
Ki (Adenosine receptor A1): 348 nM
inhibition [1]: 11%

CCOC(=O)c1cnc2c(cnn2CC(Cl)c2ccccc2)c1N1CCCCCC1 (stereo not drawn)
inhibition [2]: 35%
inhibition [1]: 22%

CCOC(=O)c1cnc2c(cnn2CC(Cl)c2ccccc2)c1NCc1ccccc1 (stereo not drawn)
Ki (Adenosine receptor A1): 139 nM
inhibition [1]: 0%

CCOC(=O)c1cnc2c(cnn2CC(Cl)c2ccccc2)c1N1CCCC1 (stereo not drawn)
Ki (Adenosine receptor A1): 98.2 nM

CCOC(=O)c1cnc2c(cnn2CC(Cl)c2ccccc2)c1NC(C)(C)C (stereo not drawn)
Ki (Adenosine receptor A1): 4800 nM

CCOC(=O)c1cnc2c(cnn2CC(Cl)c2ccccc2)c1N1CCNCC1 (stereo not drawn)
inhibition [2]: 0%
inhibition [1]: 6%

CCCCNc1c(C(=O)OCC)cnc2c1cnn2CC(Cl)c1ccccc1 (stereo not drawn)
Ki (Adenosine receptor A1): 4100 nM
inhibition [1]: 3%

CCOC(=O)c1cnc2c(cnn2CC(Cl)c2ccccc2)c1NCCc1ccccc1 (stereo not drawn)
Ki (Adenosine receptor A1): 50 nM

CCOCCNc1c(C(=O)OCC)cnc2c1cnn2CC(Cl)c1ccccc1 (stereo not drawn)
Ki (Adenosine receptor A1): 151 nM

CCOC(=O)c1cnc2c(cnn2CC(Cl)c2ccccc2)c1NC1CC1 (stereo not drawn)
Ki (Adenosine receptor A1): 112 nM
inhibition [1]: 10%

CCOC(=O)c1cnc2c(cnn2CC(Cl)c2ccccc2)c1N1CCN(C)CC1 (stereo not drawn)
inhibition [2]: 22%
Ki [3]: 2140 nM

CCOC(=O)c1cnc2c(cnn2CC(Cl)c2ccccc2)c1N1CCCCC1 (stereo not drawn)
inhibition [2]: 41%
inhibition [1]: 23%
